Laboratory results from ChEMBL document CHEMBL1141668, “Synthesis and biological activity of imidazopyridine anticoccidial agents: Part II” (Eur J Med Chem, 2008).

test system: Eimeria acervulina; assay: Anticoccidial activity against Eimeria acervulina in chickens assessed as reduction of oocysts at 25 ppm measured after 8 days by ExMAC assay relative to untreated control; assay type: functional; parameters: scale not given: the % may be the effect or the level left

Row | Structure (SMILES) | Activity [%]
1 | Nc1nccc(-c2c(-c3ccc(F)cc3)nc3cc(C4CCN(CCCO)CC4)ccn23)n1 | 80
2 | CCCC(c1ccn2c(-c3ccnc(N)n3)c(-c3ccc(F)cc3)nc2c1)N(C)C (stereo not drawn) | 100
3 | CC(C)CN1CCC(c2ccn3c(-c4ccnc(N)n4)c(-c4ccc(F)cc4)nc3c2)CC1 | 100
4 | CN(C)CC(F)c1ccn2c(-c3ccnc(N)n3)c(-c3ccc(F)cc3)nc2c1 (stereo not drawn) | 100
5 | Nc1nccc(-c2c(-c3ccc(F)cc3)nc3cc(C4CCN(Cc5ccccc5)CC4)ccn23)n1 | <50
6 | CN(C)c1ccn2c(-c3ccnc(N)n3)c(-c3ccc(F)cc3)nc2c1 | 80

test system: Eimeria mitis; assay: Anticoccidial activity against Eimeria mitis in chickens assessed as reduction of oocysts at 6.25 ppm measured after 8 days by ExMAC assay relative to untreated control; assay type: functional; parameters: scale not given: the % may be the effect or the level left

Row | Structure (SMILES) | Activity [%]
7 | Nc1nccc(-c2c(-c3ccc(F)cc3)nc3cc(C4CCN(CCCO)CC4)ccn23)n1 | <50
8 | CCCC(c1ccn2c(-c3ccnc(N)n3)c(-c3ccc(F)cc3)nc2c1)N(C)C (stereo not drawn) | <50
9 | CC(C)CN1CCC(c2ccn3c(-c4ccnc(N)n4)c(-c4ccc(F)cc4)nc3c2)CC1 | <50
10 | CN(C)CC(F)c1ccn2c(-c3ccnc(N)n3)c(-c3ccc(F)cc3)nc2c1 (stereo not drawn) | <50
11 | Nc1nccc(-c2c(-c3ccc(F)cc3)nc3cc(C4CCN(Cc5ccccc5)CC4)ccn23)n1 | <50
12 | CN(C)c1ccn2c(-c3ccnc(N)n3)c(-c3ccc(F)cc3)nc2c1 | <50

test system: Eimeria acervulina; assay: Anticoccidial activity against Eimeria acervulina in chickens assessed as reduction of oocysts at 6.25 ppm measured after 8 days by ExMAC assay relative to untreated control; assay type: functional; parameters: scale not given: the % may be the effect or the level left

Row | Structure (SMILES) | Activity [%]
13 | Nc1nccc(-c2c(-c3ccc(F)cc3)nc3cc(C4CCN(CCCO)CC4)ccn23)n1 | 50
14 | CCCC(c1ccn2c(-c3ccnc(N)n3)c(-c3ccc(F)cc3)nc2c1)N(C)C (stereo not drawn) | 80
15 | CC(C)CN1CCC(c2ccn3c(-c4ccnc(N)n4)c(-c4ccc(F)cc4)nc3c2)CC1 | 80
16 | CN(C)CC(F)c1ccn2c(-c3ccnc(N)n3)c(-c3ccc(F)cc3)nc2c1 (stereo not drawn) | <50
17 | Nc1nccc(-c2c(-c3ccc(F)cc3)nc3cc(C4CCN(Cc5ccccc5)CC4)ccn23)n1 | <50
18 | CN(C)c1ccn2c(-c3ccnc(N)n3)c(-c3ccc(F)cc3)nc2c1 | <50

test system: Eimeria mitis; assay: Anticoccidial activity against Eimeria mitis in chickens assessed as reduction of oocysts at 12.5 ppm measured after 8 days by ExMAC assay relative to untreated control; assay type: functional; parameters: scale not given: the % may be the effect or the level left

Row | Structure (SMILES) | Activity [%]
19 | Nc1nccc(-c2c(-c3ccc(F)cc3)nc3cc(C4CCN(CCCO)CC4)ccn23)n1 | <50
20 | CCCC(c1ccn2c(-c3ccnc(N)n3)c(-c3ccc(F)cc3)nc2c1)N(C)C (stereo not drawn) | <50
21 | CC(C)CN1CCC(c2ccn3c(-c4ccnc(N)n4)c(-c4ccc(F)cc4)nc3c2)CC1 | 80
22 | CN(C)CC(F)c1ccn2c(-c3ccnc(N)n3)c(-c3ccc(F)cc3)nc2c1 (stereo not drawn) | 50
23 | Nc1nccc(-c2c(-c3ccc(F)cc3)nc3cc(C4CCN(Cc5ccccc5)CC4)ccn23)n1 | <50
24 | CN(C)c1ccn2c(-c3ccnc(N)n3)c(-c3ccc(F)cc3)nc2c1 | <50

test system: Eimeria tenella; assay: Anticoccidial activity against Eimeria tenella in chickens assessed as reduction of oocysts at 6.25 ppm measured after 8 days by ExMAC assay relative to untreated control; assay type: functional; parameters: scale not given: the % may be the effect or the level left

Row | Structure (SMILES) | Activity [%]
25 | Nc1nccc(-c2c(-c3ccc(F)cc3)nc3cc(C4CCN(CCCO)CC4)ccn23)n1 | <50
26 | CCCC(c1ccn2c(-c3ccnc(N)n3)c(-c3ccc(F)cc3)nc2c1)N(C)C (stereo not drawn) | <50
27 | CC(C)CN1CCC(c2ccn3c(-c4ccnc(N)n4)c(-c4ccc(F)cc4)nc3c2)CC1 | 50
28 | CN(C)CC(F)c1ccn2c(-c3ccnc(N)n3)c(-c3ccc(F)cc3)nc2c1 (stereo not drawn) | 80
29 | Nc1nccc(-c2c(-c3ccc(F)cc3)nc3cc(C4CCN(Cc5ccccc5)CC4)ccn23)n1 | <50
30 | CN(C)c1ccn2c(-c3ccnc(N)n3)c(-c3ccc(F)cc3)nc2c1 | <50

test system: Eimeria maxima; assay: Anticoccidial activity against Eimeria maxima in chickens assessed as reduction of oocysts at 12.5 ppm measured after 8 days by ExMAC assay relative to untreated control; assay type: functional; parameters: scale not given: the % may be the effect or the level left

Row | Structure (SMILES) | Activity [%]
31 | Nc1nccc(-c2c(-c3ccc(F)cc3)nc3cc(C4CCN(CCCO)CC4)ccn23)n1 | <50
32 | CCCC(c1ccn2c(-c3ccnc(N)n3)c(-c3ccc(F)cc3)nc2c1)N(C)C (stereo not drawn) | <50
33 | CC(C)CN1CCC(c2ccn3c(-c4ccnc(N)n4)c(-c4ccc(F)cc4)nc3c2)CC1 | 100
34 | CN(C)CC(F)c1ccn2c(-c3ccnc(N)n3)c(-c3ccc(F)cc3)nc2c1 (stereo not drawn) | 100
35 | Nc1nccc(-c2c(-c3ccc(F)cc3)nc3cc(C4CCN(Cc5ccccc5)CC4)ccn23)n1 | 80
36 | CN(C)c1ccn2c(-c3ccnc(N)n3)c(-c3ccc(F)cc3)nc2c1 | 80

test system: Eimeria mitis; assay: Anticoccidial activity against Eimeria mitis in chickens assessed as reduction of oocysts at 25 ppm measured after 8 days by ExMAC assay relative to untreated control; assay type: functional; parameters: scale not given: the % may be the effect or the level left

Row | Structure (SMILES) | Activity [%]
37 | Nc1nccc(-c2c(-c3ccc(F)cc3)nc3cc(C4CCN(CCCO)CC4)ccn23)n1 | <50
38 | CCCC(c1ccn2c(-c3ccnc(N)n3)c(-c3ccc(F)cc3)nc2c1)N(C)C (stereo not drawn) | 100
39 | CC(C)CN1CCC(c2ccn3c(-c4ccnc(N)n4)c(-c4ccc(F)cc4)nc3c2)CC1 | 80
40 | CN(C)CC(F)c1ccn2c(-c3ccnc(N)n3)c(-c3ccc(F)cc3)nc2c1 (stereo not drawn) | 100
41 | Nc1nccc(-c2c(-c3ccc(F)cc3)nc3cc(C4CCN(Cc5ccccc5)CC4)ccn23)n1 | <50
42 | CN(C)c1ccn2c(-c3ccnc(N)n3)c(-c3ccc(F)cc3)nc2c1 | <50

test system: Eimeria tenella; assay: Anticoccidial activity against Eimeria tenella in chickens assessed as reduction of oocysts at 25 ppm measured after 8 days by ExMAC assay relative to untreated control; assay type: functional; parameters: scale not given: the % may be the effect or the level left

Row | Structure (SMILES) | Activity [%]
43 | Nc1nccc(-c2c(-c3ccc(F)cc3)nc3cc(C4CCN(CCCO)CC4)ccn23)n1 | 100
44 | CCCC(c1ccn2c(-c3ccnc(N)n3)c(-c3ccc(F)cc3)nc2c1)N(C)C (stereo not drawn) | 100
45 | CC(C)CN1CCC(c2ccn3c(-c4ccnc(N)n4)c(-c4ccc(F)cc4)nc3c2)CC1 | 80
46 | CN(C)CC(F)c1ccn2c(-c3ccnc(N)n3)c(-c3ccc(F)cc3)nc2c1 (stereo not drawn) | 100
47 | Nc1nccc(-c2c(-c3ccc(F)cc3)nc3cc(C4CCN(Cc5ccccc5)CC4)ccn23)n1 | 80
48 | CN(C)c1ccn2c(-c3ccnc(N)n3)c(-c3ccc(F)cc3)nc2c1 | 80

target: cGMP-dependent protein kinase (Eimeria tenella, UniProt Q8MMZ8); assay: Inhibition of Eimeria tenella cGMP-dependent protein kinase
Sequence (Q8MMZ8 whole entry): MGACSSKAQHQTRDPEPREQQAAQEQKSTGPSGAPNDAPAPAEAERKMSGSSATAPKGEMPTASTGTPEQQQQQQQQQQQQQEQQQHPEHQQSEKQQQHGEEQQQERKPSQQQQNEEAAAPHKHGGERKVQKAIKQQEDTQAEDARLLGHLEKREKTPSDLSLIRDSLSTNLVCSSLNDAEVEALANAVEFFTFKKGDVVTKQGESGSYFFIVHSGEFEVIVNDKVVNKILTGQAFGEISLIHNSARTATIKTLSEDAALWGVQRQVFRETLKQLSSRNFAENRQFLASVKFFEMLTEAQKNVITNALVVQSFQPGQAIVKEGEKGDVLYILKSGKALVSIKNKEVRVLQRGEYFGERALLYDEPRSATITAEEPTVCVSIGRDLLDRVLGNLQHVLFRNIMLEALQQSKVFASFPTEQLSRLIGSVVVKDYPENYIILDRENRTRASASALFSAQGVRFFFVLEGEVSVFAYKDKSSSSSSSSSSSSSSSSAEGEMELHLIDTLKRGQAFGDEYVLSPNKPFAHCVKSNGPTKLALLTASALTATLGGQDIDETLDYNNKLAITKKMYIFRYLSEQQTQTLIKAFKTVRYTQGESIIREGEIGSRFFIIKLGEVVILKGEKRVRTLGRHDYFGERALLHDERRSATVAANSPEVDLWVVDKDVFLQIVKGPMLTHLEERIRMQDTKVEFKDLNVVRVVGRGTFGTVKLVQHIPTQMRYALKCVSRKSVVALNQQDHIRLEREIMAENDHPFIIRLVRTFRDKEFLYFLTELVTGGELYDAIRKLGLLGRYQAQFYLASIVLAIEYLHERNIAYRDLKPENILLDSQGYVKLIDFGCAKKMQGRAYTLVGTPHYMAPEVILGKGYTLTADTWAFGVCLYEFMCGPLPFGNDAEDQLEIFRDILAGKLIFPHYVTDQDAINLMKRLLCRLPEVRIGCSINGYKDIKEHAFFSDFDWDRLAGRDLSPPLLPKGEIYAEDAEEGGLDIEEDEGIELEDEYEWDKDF

Row | Structure (SMILES) | IC50 [nM]
49 | Nc1nccc(-c2c(-c3ccc(F)cc3)nc3cc(C4CCN(CCCO)CC4)ccn23)n1 | 0.065
50 | CCCC(c1ccn2c(-c3ccnc(N)n3)c(-c3ccc(F)cc3)nc2c1)N(C)C (stereo not drawn) | 0.065
51 | CC(C)CN1CCC(c2ccn3c(-c4ccnc(N)n4)c(-c4ccc(F)cc4)nc3c2)CC1 | 0.12
52 | CN(C)CC(F)c1ccn2c(-c3ccnc(N)n3)c(-c3ccc(F)cc3)nc2c1 (stereo not drawn) | 0.59
53 | Nc1nccc(-c2c(-c3ccc(F)cc3)nc3cc(C4CCN(Cc5ccccc5)CC4)ccn23)n1 | 0.11
54 | CN(C)c1ccn2c(-c3ccnc(N)n3)c(-c3ccc(F)cc3)nc2c1 | 3

test system: Eimeria acervulina; assay: Anticoccidial activity against Eimeria acervulina in chickens assessed as reduction of oocysts at 12.5 ppm measured after 8 days by ExMAC assay relative to untreated control; assay type: functional; parameters: scale not given: the % may be the effect or the level left

Row | Structure (SMILES) | Activity [%]
55 | Nc1nccc(-c2c(-c3ccc(F)cc3)nc3cc(C4CCN(CCCO)CC4)ccn23)n1 | 50
56 | CCCC(c1ccn2c(-c3ccnc(N)n3)c(-c3ccc(F)cc3)nc2c1)N(C)C (stereo not drawn) | 80
57 | CC(C)CN1CCC(c2ccn3c(-c4ccnc(N)n4)c(-c4ccc(F)cc4)nc3c2)CC1 | 80
58 | CN(C)CC(F)c1ccn2c(-c3ccnc(N)n3)c(-c3ccc(F)cc3)nc2c1 (stereo not drawn) | 80
59 | Nc1nccc(-c2c(-c3ccc(F)cc3)nc3cc(C4CCN(Cc5ccccc5)CC4)ccn23)n1 | 80
60 | CN(C)c1ccn2c(-c3ccnc(N)n3)c(-c3ccc(F)cc3)nc2c1 | <50

test system: Eimeria maxima; assay: Anticoccidial activity against Eimeria maxima in chickens assessed as reduction of oocysts at 6.25 ppm measured after 8 days by ExMAC assay relative to untreated control; assay type: functional; parameters: scale not given: the % may be the effect or the level left

Row | Structure (SMILES) | Activity [%]
61 | Nc1nccc(-c2c(-c3ccc(F)cc3)nc3cc(C4CCN(CCCO)CC4)ccn23)n1 | <50
62 | CCCC(c1ccn2c(-c3ccnc(N)n3)c(-c3ccc(F)cc3)nc2c1)N(C)C (stereo not drawn) | 100
63 | CC(C)CN1CCC(c2ccn3c(-c4ccnc(N)n4)c(-c4ccc(F)cc4)nc3c2)CC1 | <50
64 | CN(C)CC(F)c1ccn2c(-c3ccnc(N)n3)c(-c3ccc(F)cc3)nc2c1 (stereo not drawn) | 100
65 | Nc1nccc(-c2c(-c3ccc(F)cc3)nc3cc(C4CCN(Cc5ccccc5)CC4)ccn23)n1 | 80
66 | CN(C)c1ccn2c(-c3ccnc(N)n3)c(-c3ccc(F)cc3)nc2c1 | <50

test system: Eimeria tenella; assay: Anticoccidial activity against Eimeria tenella in chickens assessed as reduction of oocysts at 12.5 ppm measured after 8 days by ExMAC assay relative to untreated control; assay type: functional; parameters: scale not given: the % may be the effect or the level left

Row | Structure (SMILES) | Activity [%]
67 | Nc1nccc(-c2c(-c3ccc(F)cc3)nc3cc(C4CCN(CCCO)CC4)ccn23)n1 | 100
68 | CCCC(c1ccn2c(-c3ccnc(N)n3)c(-c3ccc(F)cc3)nc2c1)N(C)C (stereo not drawn) | <50
69 | CC(C)CN1CCC(c2ccn3c(-c4ccnc(N)n4)c(-c4ccc(F)cc4)nc3c2)CC1 | 100
70 | CN(C)CC(F)c1ccn2c(-c3ccnc(N)n3)c(-c3ccc(F)cc3)nc2c1 (stereo not drawn) | 80
71 | Nc1nccc(-c2c(-c3ccc(F)cc3)nc3cc(C4CCN(Cc5ccccc5)CC4)ccn23)n1 | 80
72 | CN(C)c1ccn2c(-c3ccnc(N)n3)c(-c3ccc(F)cc3)nc2c1 | 50

test system: Eimeria maxima; assay: Anticoccidial activity against Eimeria maxima in chickens assessed as reduction of oocysts at 25 ppm measured after 8 days by ExMAC assay relative to untreated control; assay type: functional; parameters: scale not given: the % may be the effect or the level left

Row | Structure (SMILES) | Activity [%]
73 | Nc1nccc(-c2c(-c3ccc(F)cc3)nc3cc(C4CCN(CCCO)CC4)ccn23)n1 | <50
74 | CCCC(c1ccn2c(-c3ccnc(N)n3)c(-c3ccc(F)cc3)nc2c1)N(C)C (stereo not drawn) | 100
75 | CC(C)CN1CCC(c2ccn3c(-c4ccnc(N)n4)c(-c4ccc(F)cc4)nc3c2)CC1 | 80
76 | CN(C)CC(F)c1ccn2c(-c3ccnc(N)n3)c(-c3ccc(F)cc3)nc2c1 (stereo not drawn) | 100
77 | Nc1nccc(-c2c(-c3ccc(F)cc3)nc3cc(C4CCN(Cc5ccccc5)CC4)ccn23)n1 | 100
78 | CN(C)c1ccn2c(-c3ccnc(N)n3)c(-c3ccc(F)cc3)nc2c1 | 80
